The text below walks through data of ChEMBL document CHEMBL5678818, “Discovery of potent SOS1 inhibitors that block RAS activation via disruption of the RAS-SOS1 interaction” (Proc Natl Acad Sci U S A, 2019).

Test [1] deals with Activin receptor type-1-like (Homo sapiens) (UniProt P37023). Put plainly: Inhibition of ACVRL1 (unknown origin) assessed as residual activity at 1000 nM by KINOMEscan analysis relative to control.
Test [2] addresses T1, Serine/threonine-protein kinase D3 (Homo sapiens) (UniProt O94806).
T1 sequence (whole entry): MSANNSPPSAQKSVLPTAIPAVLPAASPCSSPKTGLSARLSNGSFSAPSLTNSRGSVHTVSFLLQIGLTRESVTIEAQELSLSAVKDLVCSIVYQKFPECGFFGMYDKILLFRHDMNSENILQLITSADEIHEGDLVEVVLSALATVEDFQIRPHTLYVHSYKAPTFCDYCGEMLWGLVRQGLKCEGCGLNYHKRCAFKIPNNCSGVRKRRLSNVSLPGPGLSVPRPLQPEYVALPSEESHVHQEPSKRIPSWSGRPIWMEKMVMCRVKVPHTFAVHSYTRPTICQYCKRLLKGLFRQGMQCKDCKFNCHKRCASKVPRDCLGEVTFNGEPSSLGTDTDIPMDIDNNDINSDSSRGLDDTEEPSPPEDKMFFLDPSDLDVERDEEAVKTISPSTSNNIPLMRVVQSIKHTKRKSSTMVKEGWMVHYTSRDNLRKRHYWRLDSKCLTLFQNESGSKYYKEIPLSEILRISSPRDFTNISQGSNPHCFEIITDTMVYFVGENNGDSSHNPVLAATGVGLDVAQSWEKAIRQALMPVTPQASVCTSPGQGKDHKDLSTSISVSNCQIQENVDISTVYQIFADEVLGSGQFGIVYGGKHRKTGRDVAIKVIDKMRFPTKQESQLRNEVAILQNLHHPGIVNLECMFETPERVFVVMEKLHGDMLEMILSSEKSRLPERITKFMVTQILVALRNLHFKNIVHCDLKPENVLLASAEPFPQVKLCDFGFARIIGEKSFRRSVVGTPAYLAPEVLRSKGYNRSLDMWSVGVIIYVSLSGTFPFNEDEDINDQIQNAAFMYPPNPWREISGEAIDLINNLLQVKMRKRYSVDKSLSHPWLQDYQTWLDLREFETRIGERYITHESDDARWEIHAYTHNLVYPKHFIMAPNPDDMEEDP
In words: Inhibition of PRKD3 (unknown origin) assessed as residual activity at 1000 nM by KINOMEscan analysis relative to control.

For test [3], the system named is Tyrosine-protein kinase ABL1 (Homo sapiens), P00519 [T315I]. Put plainly: Inhibition of nonphosphorylated ABL1 T315I mutant (unknown origin) assessed as residual activity at 1000 nM by KINOMEscan analysis relative to control.
The target in test [4] is Ribosomal protein S6 kinase alpha-6 (Homo sapiens) (UniProt Q9UK32). Put plainly: Inhibition of N-terminal RSK4 […] domain 1 (unknown origin) assessed as residual activity at 1000 nM by KINOMEscan analysis relative to control.
Test [5] addresses Tyrosine-protein kinase Fyn (Homo sapiens) (UniProt P06241). Put plainly: Inhibition of FYN (unknown origin) assessed as residual activity at 1000 nM by KINOMEscan analysis relative to control.
The target of test [6] is T2, Serine/threonine-protein kinase TNNI3K (Homo sapiens) (UniProt Q59H18).
T2 sequence (whole entry): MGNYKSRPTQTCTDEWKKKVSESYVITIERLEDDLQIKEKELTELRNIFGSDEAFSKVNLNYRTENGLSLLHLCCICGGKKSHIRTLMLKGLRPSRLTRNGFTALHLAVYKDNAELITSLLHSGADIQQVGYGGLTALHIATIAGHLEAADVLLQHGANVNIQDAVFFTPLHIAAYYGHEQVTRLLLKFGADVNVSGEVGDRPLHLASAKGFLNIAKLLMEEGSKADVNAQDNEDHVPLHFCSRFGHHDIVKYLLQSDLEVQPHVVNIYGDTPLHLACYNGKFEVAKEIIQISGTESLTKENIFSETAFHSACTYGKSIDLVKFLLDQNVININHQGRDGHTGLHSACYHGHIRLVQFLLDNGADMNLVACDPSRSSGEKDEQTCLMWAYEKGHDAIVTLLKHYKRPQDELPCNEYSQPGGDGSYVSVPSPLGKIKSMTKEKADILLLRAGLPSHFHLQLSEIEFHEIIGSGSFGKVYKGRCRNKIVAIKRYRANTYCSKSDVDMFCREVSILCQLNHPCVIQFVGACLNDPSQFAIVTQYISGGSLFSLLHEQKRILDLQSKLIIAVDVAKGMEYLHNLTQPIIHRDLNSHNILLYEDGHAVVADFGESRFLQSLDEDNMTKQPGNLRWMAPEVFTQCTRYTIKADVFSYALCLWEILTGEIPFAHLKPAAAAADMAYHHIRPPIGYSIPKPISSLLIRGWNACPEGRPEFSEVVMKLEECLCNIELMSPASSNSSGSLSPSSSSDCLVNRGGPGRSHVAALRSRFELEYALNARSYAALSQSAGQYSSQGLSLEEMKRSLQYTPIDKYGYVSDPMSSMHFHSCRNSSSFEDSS
Put plainly: Inhibition of TNNI3K (unknown origin) assessed as residual activity at 1000 nM by KINOMEscan analysis relative to control.

The target of test [7] is Serine/threonine-protein kinase tousled-like 2 (Homo sapiens) (UniProt Q86UE8). Put plainly: Inhibition of TLK2 (unknown origin) assessed as residual activity at 1000 nM by KINOMEscan analysis relative to control.
Test [8] relates to Phosphatidylinositol 4,5-bisphosphate 3-kinase catalytic subunit alpha isoform (Homo sapiens), P42336 [Q546K]. Put plainly: Inhibition of PIK3CA Q546K mutant (unknown origin) assessed as residual activity at 1000 nM by KINOMEscan analysis relative to control.
Test [9] has as its target T3, Homeodomain-interacting protein kinase 4 (Homo sapiens) (UniProt Q8NE63).
T3 sequence (whole entry): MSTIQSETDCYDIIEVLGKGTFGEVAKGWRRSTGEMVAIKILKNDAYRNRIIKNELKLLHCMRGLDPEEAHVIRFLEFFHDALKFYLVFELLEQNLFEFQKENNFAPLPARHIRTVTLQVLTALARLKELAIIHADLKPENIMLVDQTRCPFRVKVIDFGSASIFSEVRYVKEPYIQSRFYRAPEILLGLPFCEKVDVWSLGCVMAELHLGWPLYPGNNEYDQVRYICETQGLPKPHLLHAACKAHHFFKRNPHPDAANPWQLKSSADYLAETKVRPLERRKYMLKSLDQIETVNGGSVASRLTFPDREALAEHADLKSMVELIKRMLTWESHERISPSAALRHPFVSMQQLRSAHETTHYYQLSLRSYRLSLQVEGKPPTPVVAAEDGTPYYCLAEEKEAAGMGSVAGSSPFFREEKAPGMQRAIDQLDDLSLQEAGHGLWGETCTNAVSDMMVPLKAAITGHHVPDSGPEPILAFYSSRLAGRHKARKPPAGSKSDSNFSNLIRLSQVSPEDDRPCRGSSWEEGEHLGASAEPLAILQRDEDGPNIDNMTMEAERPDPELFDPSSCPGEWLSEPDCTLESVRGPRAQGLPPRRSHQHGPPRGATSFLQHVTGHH
In words: Inhibition of HIPK4 (unknown origin) assessed as residual activity at 1000 nM by KINOMEscan analysis relative to control.

Chain of Tyrosine-protein kinase Fyn (Homo sapiens) (P06241 2-537 limits assumed): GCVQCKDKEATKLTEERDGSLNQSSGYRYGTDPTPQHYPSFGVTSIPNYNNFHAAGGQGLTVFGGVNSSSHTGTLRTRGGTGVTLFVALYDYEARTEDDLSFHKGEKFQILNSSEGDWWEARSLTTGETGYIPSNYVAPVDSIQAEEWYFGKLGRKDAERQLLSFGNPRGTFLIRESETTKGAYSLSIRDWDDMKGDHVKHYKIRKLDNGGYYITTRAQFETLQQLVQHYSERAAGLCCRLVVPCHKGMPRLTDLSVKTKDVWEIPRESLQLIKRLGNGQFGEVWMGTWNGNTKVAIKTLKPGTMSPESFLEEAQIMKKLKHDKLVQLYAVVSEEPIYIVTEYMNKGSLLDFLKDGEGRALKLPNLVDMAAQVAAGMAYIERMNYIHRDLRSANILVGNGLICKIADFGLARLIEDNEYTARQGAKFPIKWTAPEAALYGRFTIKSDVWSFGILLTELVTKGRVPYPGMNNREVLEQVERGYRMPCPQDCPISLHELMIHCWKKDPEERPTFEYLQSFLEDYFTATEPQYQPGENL
Chain of Serine/threonine-protein kinase tousled-like 2 (Homo sapiens) (Q86UE8 whole entry, looked up, canonical isoform): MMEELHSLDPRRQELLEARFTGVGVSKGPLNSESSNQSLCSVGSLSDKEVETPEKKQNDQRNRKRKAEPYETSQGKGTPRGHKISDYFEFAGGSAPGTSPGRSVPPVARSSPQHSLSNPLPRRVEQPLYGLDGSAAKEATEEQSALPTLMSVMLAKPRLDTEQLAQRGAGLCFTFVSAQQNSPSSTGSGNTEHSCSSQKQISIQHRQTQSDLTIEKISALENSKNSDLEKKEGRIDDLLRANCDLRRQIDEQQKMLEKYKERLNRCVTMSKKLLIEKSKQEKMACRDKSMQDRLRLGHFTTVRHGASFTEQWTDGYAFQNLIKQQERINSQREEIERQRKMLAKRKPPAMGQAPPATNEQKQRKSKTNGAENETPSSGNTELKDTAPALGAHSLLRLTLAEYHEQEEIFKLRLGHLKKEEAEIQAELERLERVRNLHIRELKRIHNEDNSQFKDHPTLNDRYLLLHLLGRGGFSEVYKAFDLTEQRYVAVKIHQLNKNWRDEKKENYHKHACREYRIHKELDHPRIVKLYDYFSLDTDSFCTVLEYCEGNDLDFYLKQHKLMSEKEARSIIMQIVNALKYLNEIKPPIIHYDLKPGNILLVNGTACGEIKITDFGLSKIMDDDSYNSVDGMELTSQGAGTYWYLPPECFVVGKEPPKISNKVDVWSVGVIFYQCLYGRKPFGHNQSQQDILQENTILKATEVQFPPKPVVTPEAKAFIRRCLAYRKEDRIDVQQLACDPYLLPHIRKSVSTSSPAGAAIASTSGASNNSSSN
Chain of Activin receptor type-1-like (Homo sapiens) (P37023 whole entry): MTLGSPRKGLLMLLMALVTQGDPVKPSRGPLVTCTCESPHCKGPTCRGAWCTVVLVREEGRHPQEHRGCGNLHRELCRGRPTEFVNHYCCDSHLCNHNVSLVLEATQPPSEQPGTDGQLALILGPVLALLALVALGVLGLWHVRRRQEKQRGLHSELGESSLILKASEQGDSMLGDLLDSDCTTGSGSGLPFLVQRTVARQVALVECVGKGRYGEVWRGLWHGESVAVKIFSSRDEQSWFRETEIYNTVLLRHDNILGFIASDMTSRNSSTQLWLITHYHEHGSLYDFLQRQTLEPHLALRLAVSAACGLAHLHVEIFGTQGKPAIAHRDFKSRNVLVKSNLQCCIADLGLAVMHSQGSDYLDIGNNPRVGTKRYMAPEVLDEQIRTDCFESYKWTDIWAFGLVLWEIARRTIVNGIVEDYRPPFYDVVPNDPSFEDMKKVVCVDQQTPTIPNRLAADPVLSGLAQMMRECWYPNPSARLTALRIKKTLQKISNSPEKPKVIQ
Chain of Ribosomal protein S6 kinase alpha-6 (Homo sapiens) (Q9UK32 whole entry): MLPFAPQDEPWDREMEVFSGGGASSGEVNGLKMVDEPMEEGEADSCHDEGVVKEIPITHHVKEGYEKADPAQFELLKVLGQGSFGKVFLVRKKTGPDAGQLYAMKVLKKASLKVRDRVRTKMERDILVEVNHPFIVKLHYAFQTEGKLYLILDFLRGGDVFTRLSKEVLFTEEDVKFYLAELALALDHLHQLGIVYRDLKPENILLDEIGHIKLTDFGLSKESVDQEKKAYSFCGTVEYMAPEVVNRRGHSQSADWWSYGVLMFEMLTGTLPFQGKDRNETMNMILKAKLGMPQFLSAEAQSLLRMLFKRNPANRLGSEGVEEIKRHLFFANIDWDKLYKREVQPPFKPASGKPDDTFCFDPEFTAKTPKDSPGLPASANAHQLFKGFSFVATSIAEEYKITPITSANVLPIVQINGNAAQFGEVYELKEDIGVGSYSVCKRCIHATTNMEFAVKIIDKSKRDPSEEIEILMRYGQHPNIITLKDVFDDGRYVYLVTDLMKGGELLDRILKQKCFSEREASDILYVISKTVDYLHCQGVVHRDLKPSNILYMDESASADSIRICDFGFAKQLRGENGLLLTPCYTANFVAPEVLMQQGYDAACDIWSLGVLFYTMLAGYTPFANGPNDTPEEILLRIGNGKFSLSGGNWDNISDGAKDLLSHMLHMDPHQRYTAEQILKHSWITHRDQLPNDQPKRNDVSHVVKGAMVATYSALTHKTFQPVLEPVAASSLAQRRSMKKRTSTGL
Chain of Phosphatidylinositol 4,5-bisphosphate 3-kinase catalytic subunit alpha isoform (Homo sapiens), P42336 [Q546K] (P42336 whole entry Q546K, canonical isoform): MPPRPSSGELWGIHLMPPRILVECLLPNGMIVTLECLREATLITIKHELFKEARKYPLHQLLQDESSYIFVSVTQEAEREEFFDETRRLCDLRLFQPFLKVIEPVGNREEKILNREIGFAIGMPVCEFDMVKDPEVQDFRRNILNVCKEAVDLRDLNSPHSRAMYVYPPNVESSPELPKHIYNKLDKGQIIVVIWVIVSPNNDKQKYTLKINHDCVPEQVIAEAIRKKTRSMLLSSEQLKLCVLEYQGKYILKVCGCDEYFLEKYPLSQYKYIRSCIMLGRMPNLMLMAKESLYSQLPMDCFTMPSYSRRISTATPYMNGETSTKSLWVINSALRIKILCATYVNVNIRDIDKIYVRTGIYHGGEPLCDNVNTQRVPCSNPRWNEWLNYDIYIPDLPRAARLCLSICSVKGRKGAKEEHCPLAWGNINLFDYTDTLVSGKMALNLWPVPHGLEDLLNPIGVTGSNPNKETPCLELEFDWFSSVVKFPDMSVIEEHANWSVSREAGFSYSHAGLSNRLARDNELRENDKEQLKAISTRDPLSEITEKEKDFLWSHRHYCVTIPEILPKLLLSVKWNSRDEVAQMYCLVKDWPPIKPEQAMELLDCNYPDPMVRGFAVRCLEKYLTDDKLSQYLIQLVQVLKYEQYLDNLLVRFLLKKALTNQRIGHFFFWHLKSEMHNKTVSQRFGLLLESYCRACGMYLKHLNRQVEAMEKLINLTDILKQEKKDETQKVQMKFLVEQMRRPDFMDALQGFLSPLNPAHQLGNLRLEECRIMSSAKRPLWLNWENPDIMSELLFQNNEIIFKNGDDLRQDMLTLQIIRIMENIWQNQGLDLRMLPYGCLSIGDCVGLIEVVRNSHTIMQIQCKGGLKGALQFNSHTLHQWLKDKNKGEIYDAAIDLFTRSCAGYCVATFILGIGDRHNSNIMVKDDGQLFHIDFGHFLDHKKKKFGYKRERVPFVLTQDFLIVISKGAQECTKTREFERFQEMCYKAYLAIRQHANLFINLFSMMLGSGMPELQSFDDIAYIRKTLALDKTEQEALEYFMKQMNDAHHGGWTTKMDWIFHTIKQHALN

Consider `COc1cc2ncnc(N[C@H](C)c3cccc4ccccc34)c2cc1OC`, for which the Activity in test [1], in test [2], in test [3], in test [4], in test [5] and in test [6] was 100% throughout. The Activity in [7] came to 77%; in [8], 83%; in [9], 100%.
With `COc1cc2nc(C)nc(N[C@H](C)c3cccc(-c4cn[nH]c4)c3)c2cc1OC`, the Activity in test [1] turned out to be 99%; in test [2] it was 100%; in test [3], 95%; in [4] it was 78%; in test [5], 72%; in [6], 96%. Moreover, the Activity turned out to be 83% in test [7], 87% in test [8] and 80% in test [9].
